Measured values reported in patent publication EP4656642A1, “ESTROGEN RECEPTOR PROTEOLYSIS TARGETING CHIMERA COMPOUND AND USE THEREOF” (GAN & LEE PHARM CO., LTD, priority 2023, dated 2024).

Legend:
Assay type in all cases: cell-based
[1] = tested on: LNCAP FGC cells; experiment: Inhibition of LNCAP cell proliferation (WST-8, 96 hours); settings: LNCAP FGC cells, 96 hours, WST-8
Method: Test Example 8 Inhibitory activity of the compounds disclosed in the present disclosure on LNCAP cell proliferation
LNCAP FGC cells (ATCC, CLR-1740) were cultured in RPMI 1640 (ATCC, 30-2001) complete medium containing 10% fetal bovine serum (Hyclone, SH30406.05). On the first day of the experiment, LNCaP FGC cells were inoculated in 96-well plates at a density of 5,000 cells/well using RPMI 1640 medium containing 10% fetal bovine serum, with 100µL of cell suspension per well, and placed in a cell culture incubator with 5% CO2 at 37°C overnight. […] The compound concentrations were prepared in complete […] medium and serially diluted 5-fold starting from 10 µM, resulting in a total of nine concentration points. Wells receiving 100 µL of RPMI 1640 medium containing 10% FBS only were used as controls. The plates were incubated at 37°C in a 5% CO2 incubator for 96 hours.

[2] = tested on: VCaP cells; experiment: Inhibition of proliferation of VCaP cells (WST-8, 168 hours); settings: VCaP cells, 168 hours, WST-8
Method: Test Example 7 Inhibitory activity of the compounds disclosed in the present disclosure on the proliferation of VCaP cells
VCaP cells (ATCC, CRL-2876) were cultured in DMEM (Gibco, 11995-065) complete medium containing 10% fetal bovine serum (Hyclone, SH30406.05). On the first day of the experiment, VCaP cells were inoculated in 96-well plates at a density of 15,000 cells/well using DMEM medium containing 10% fetal bovine serum, with 100µL of cell suspension per well, and placed in a cell culture incubator with 5% CO2 at 37°C overnight. […] The compound concentrations were prepared in complete DMEM medium and serially diluted 5-fold starting from 10 µM, resulting in a total of nine concentration points. Wells receiving 100 µL of DMEM medium containing 10% FBS only were used as blank controls. The plates were incubated at 37°C in a 5% CO2 incubator for 168 hours.

[3] = biological target: T1, AR protein (Homo sapiens, UniProt P10275); settings: 8 h
T1 construct: host or cells: VCaP
T1 sequence (P10275 1-920): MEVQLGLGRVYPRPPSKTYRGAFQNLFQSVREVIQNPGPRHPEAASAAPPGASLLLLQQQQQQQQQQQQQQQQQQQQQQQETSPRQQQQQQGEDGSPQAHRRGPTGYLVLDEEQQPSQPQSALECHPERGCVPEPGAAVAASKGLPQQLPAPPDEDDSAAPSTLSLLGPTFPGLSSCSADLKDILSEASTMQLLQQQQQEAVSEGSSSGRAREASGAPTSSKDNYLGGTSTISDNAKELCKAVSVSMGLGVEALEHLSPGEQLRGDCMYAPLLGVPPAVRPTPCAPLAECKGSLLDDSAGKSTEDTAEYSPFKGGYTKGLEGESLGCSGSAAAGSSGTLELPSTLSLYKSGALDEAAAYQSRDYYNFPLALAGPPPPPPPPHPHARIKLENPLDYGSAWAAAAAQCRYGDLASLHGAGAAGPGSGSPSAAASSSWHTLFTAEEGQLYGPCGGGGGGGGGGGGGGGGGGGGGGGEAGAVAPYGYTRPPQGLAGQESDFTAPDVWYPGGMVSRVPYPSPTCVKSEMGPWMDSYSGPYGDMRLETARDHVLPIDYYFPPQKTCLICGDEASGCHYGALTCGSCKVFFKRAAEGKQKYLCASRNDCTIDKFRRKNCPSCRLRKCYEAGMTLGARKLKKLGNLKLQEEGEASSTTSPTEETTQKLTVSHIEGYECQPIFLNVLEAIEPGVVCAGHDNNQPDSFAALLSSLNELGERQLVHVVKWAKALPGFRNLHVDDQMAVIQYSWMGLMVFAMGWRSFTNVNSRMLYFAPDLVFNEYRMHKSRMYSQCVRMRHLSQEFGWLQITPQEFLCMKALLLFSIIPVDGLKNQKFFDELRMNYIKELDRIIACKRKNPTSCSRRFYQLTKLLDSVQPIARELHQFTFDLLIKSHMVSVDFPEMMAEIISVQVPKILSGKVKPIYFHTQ
Method: Test Example 9 Degradation activity of the compounds disclosed in the present disclosure against AR protein in VCAP cells (cell source: ATCC)
AR-positive human prostate cancer cells, VCaP, were inoculated in six-well microplates (Thermo Catalog No. 140675) in DMEM (GiBco Catalog No. 11995-065) containing 10% FBS (Hyclone Catalog No. SH30406.05) at a density of 3 × 10^5 cells/well. […] After 8 h, the culture medium was discarded, and cells were washed with PBS, then RIPA lysis buffer containing 1% Protease Inhibitor Cocktail was added, and the total protein extract was obtained after lysis and centrifugation, and the protein concentration in the extract was detected by BCA method. Protein electrophoresis was carried out by SDS-PAGE, after which the protein was transferred to PVDF (Millipore Sigma catalog number PSRP010R5) membrane by 100V constant-voltage electrotransfer for 60 min, and the PVDF membrane was placed in 1×TBST solution with 5% milk and blocked at room temperature for 1 h. The primary antibody solution (Anti-Androgen receptor, Cell Signaling Technology Catalog No. 5153S; 1: 2000 dilution) was prepared and incubated overnight at 4°C. The primary antibody solution was discarded, and the PVDF membrane was washed three times with 1× TBST for 5 min each. The secondary antibody solution (Thermo catalog number SA5-35571; 1:7500 dilution) was prepared, and the secondary antibody dilution was incubated at room temperature for 1h. The secondary antibody solution was discarded, and the PVDF membrane was washed three times with 1×TBST for 5 min each. Western membrane imaging was performed using a dual-color infrared laser imaging system (Licor catalog number Odyssey CLX). Bands were analyzed in grayscale using the software Image Studio. For each sample, GAPDH protein bands were detected as internal reference. The degradation rates of the AR protein for the compounds and positive control sample were calculated based on the grayscale of the protein bands.

| SMILES | IC50 [1] | IC50 [2] | Degradation rates of the AR protein in VCAP cells, 0.5 nM [3] | Degradation rates of the AR protein in VCAP cells, 5 nM [3] |
| --- | --- | --- | --- | --- |
| COc1cc(O[C@H]2CC[C@H](NC(=O)c3ccc(N4CCC(C)(CN5CCC6(CC5)COc5c6ccc6c5C(=O)N(C5CCC(=O)NC5=O)C6)CC4)nn3)CC2)ccc1C#N (relative stereo) [2-261] | 49100 nM | 12 nM | 44% | 82% |
| CC1(CN2CCC3(CC2)COc2c3ccc3c2C(=O)N(C2CCC(=O)NC2=O)C3)CCN(c2ccc(C(=O)N[C@H]3CC[C@H](Oc4ccc(C#N)c(Cl)c4)CC3)nn2)CC1 (relative stereo) [2-262] | 21300 nM | 11 nM | 34% | 75% |
| COC1(CN2CCC3(CC2)COc2c3ccc3c2C(=O)N(C2CCC(=O)NC2=O)C3)CCN(c2ccc(C(=O)N[C@H]3CC[C@H](Oc4ccc(C#N)c(Cl)c4)CC3)nn2)CC1 (relative stereo) [2-263] | 6300 nM | 11 nM | 65% | 88% |
| COc1cc(O[C@H]2C(C)(C)[C@H](NC(=O)c3ccc(N4CCC(C)(CN5CCC6(CC5)COc5c6ccc6c5C(=O)N(C5CCC(=O)NC5=O)C6)CC4)cc3)C2(C)C)ccc1C#N (relative stereo) [2-292] | 68500 nM | 3 nM | 30% | 72% |
| COc1cc(O[C@H]2C(C)(C)[C@H](NC(=O)c3ccc(N4CCC(CN5CCC6(CC5)COc5c6ccc6c5C(=O)N(C5CCC(=O)NC5=O)C6)(OC)CC4)cc3)C2(C)C)ccc1C#N (relative stereo) [2-293] | 88100 nM | 5 nM | 72% | 89% |
| N#Cc1ccc(O[C@H]2CC[C@H](NC(=O)c3ccc(N4CCC(F)(CN5CCC6(CC5)COc5c6ccc6c5C(=O)N(C5CCC(=O)NC5=O)C6)CC4)nn3)CC2)cc1Cl (relative stereo) [2-315] | 2450 nM | 7 nM | 31% | 71% |
| COc1cc(O[C@H]2CC[C@H](NC(=O)c3ccc(N4CCC(F)(CN5CCC6(CC5)COc5c6ccc6c5C(=O)N(C5CCC(=O)NC5=O)C6)CC4)nn3)CC2)ccc1C#N (relative stereo) [2-316] | 68200 nM | 2 nM | 35% | 61% |
| COc1cc(O[C@H]2C(C)(C)[C@H](NC(=O)c3ccc(N4CCC(CN5CCC6(CC5)COc5c6ccc6c5C(=O)N(C5CCC(=O)NC5=O)C6)CC4)cc3)C2(C)C)ccc1C#N (relative stereo) [2-318] | 9850 nM | 1 nM | 55% | 78% |
| C[C@H]1CC2(CCN(c3ccc(N4CCC(CN5CCC6(CC5)COc5c6ccc6c5C(=O)N(C5CCC(=O)NC5=O)C6)CC4)cc3)CC2)CN1c1ccc(C#N)c(Cl)c1 (stereo partly drawn) [2-103] | 850 nM | 36 nM | 0% | 47% |
